The record followed here is patent US20070259948A1, “Compounds with antifungal properties and process thereof” (priority 2006, published 2007).

What all share (experiment): Antifungal susceptibility testing (minimum inhibitory concentration), soyabean casein digest broth
Common to all, as to format: cell-based

The subject of assay [1] is C. albicans. To be noted: Candida albicans; end points after 48 hours, visually / spectrophotometer; NI till x = no inhibition up to x; read-out: Activity against organisms In μg/ml, C. albicans (minimum inhibitory concentration). The protocol: (§1) In vitro evaluation of antifungal activity can be performed by determining the minimum inhibitory concentration. Anti-fungal susceptibility testing of these anti-fungal compounds was done by conventional method using soyabean casein digest broth. Known anti-fungal agents like Fluconazole and amphotericin-B were used as positive control. End points were determined after 48 hours visually and by using Spectrophotometer wherever necessary. Different dilutions were tried and the set of experiments.

The subject of assay [2] is F. proliferatum. To be noted: Fusarium proliferatum; end points after 48 hours, visually / spectrophotometer; NI till x = no inhibition up to x; read-out: Activity against organisms In μg/ml, F. proliferatum (minimum inhibitory concentration). The protocol: as §1
Assay [3] has as its system A. niger. The note with it: Aspergillus niger; end points after 48 hours, visually / spectrophotometer; NI till x = no inhibition up to x; read-out: Activity against organisms In μg/ml, A. niger (minimum inhibitory concentration). On the procedure: as §1

≈ marks a conversion by molar mass, not a printed value. A value given as a limit tells only on which side of the number the result lay.

As for `O=C1OC(COC(=O)c2cccc(I)c2)C=C1c1cccc(Cl)c1` (stereo not drawn) [1JB, 4-(3-chlorophenyl)-5-oxo-2,5-dihydrofuran-2-ylmethyl 3-iodobenzoate], the MIC in assay [1], in assay [2] and in assay [3] was over 2 µg/mL in each case.
With `O=C1OC(COC(=O)c2cccc(I)c2)C=C1c1cccc(Br)c1` (stereo not drawn) [1JC, 4-(3-bromophenyl)-5-oxo-2,5-dihydrofuran-2-ylmethyl 3-iodobenzoate], the MIC was 2 to 4 µg/mL (≈ 4.01 to 8.01 µM) in assay [1], over 4 µg/mL in assay [2] and over 4 µg/mL in assay [3].
For the compound `COc1ccc(C2=CC(COC(=O)c3cccc(I)c3)OC2=O)cc1Br` (stereo not drawn) [1JE, 4-(3-bromo-4-methoxyphenyl)-5-oxo-2,5-dihydrofuran-2-ylmethyl 3-iodobenzoate], the MIC in assay [1], in assay [2] and in assay [3] was over 2 µg/mL each time.
For the compound `O=C1OC(COC(=O)c2ccc[nH]2)C=C1c1cccc(Cl)c1` (stereo not drawn) [1KB, 4-(3-chlorophenyl)-5-oxo-2,5-dihydrofuran-2-ylmethyl pyrrole-2-carboxylate], the MIC in assay [1] was 0.5 to 1 µg/mL (≈ 1.57 to 3.15 µM); in assay [2], 1 to 2 µg/mL (≈ 3.15 to 6.29 µM); in assay [3], 1 to 2 µg/mL (≈ 3.15 to 6.29 µM).
In the case of `O=C1OC(COC(=O)c2ccc[nH]2)C=C1c1cccc(Br)c1` (stereo not drawn) [1KC, 4-(3-bromophenyl)-5-oxo-2,5-dihydrofuran-2-ylmethyl pyrrole-2-carboxylate], the MIC in assay [1] lay in the range of 1 to 2 µg/mL (≈ 2.76 to 5.52 µM); in assay [2], 1 to 2 µg/mL (≈ 2.76 to 5.52 µM); in assay [3], 2 to 4 µg/mL (≈ 5.52 to 11 µM).
Regarding `COc1ccc(C2=CC(COC(=O)c3cc(Br)c(Br)s3)OC2=O)cc1Br` (stereo not drawn) [FE, 4-(3-bromo-4-methoxyphenyl)-5-oxo-2,5-dihydrofuran-2-ylmethyl 4,5-dibromothiophene-2-carboxylate], the MIC in assay [1] is 4 to 8 µg/mL (≈ 7.05 to 14.1 µM); in assay [2], over 4 µg/mL; in assay [3], over 4 µg/mL.
